Patent publication US20040132817A1, “Use of an histone deacetylase inhibitor for the treatment of diseases associated with an hpv infection” (priority 2001, published 2004)

What was measured:
[1] = test system: HPV16 E6/E7 transcription; experiment: Northern blot of HPV16 transcription in "1321" keratinocytes; format: cell-based
Procedure: Keratinocytes immortalized with HPV16 E6/E7 either under control of (A) the homologues viral upstream regulatory region (,1637″) or (B) of the β-actin promoter (,1321″) were incubated with NaB for various periods of time. 5 μg of RNA was separated in 1% agarose gels. The filters were hybridized with probes specific for HPV16, p21^CIP1 (=p21), β-actin and GAPDH. The positions of the 28S and 18S ribosomal RNA are indicated. (Contr.): untreated cells.
(A) 5 μg of RNA was separated in 1% agarose gels. The filters were hybridized with HPV 16, p21^CIP1 (=) p21 and GAPDH-specific probes. The positions of the 28S and 18S ribosomal RNA are indicated.
Total cellular RNA was extracted according to the guanidinium-thiocyanate procedure (Chomczynski and Sacchi, Anal. Biochem. 162 (1987), 156-159). Approximately 5 μg RNA were separated on 1% agarose gels in the presence of ethidium bromide under non-denaturing conditions and transferred to GeneScreen Plus membranes (DuPont, Bad Homburg, Deutschland). The filters were hybridized under stringent conditions with specific probes, which were labeled with ^32p-dCTP by random priming (Feinberg and Vogelstein, Anal. Biochem. 137 (1984), 266-267).

cdk2 = experiment: Histone H1 kinase assay of cdk2 complexes immunoprecipitated from HeLa cells; format: cell-based, human; conditions: for cdk2 kinase activity, time course: 6 mM sodium butyrate, 3, 6, 9, 12 and 16 hours; for cdk2 kinase activity (histone H1): 16 hours
Excerpt: (A) Autoradiography. Cdk2 complexes were immunoprecipitated from HeLa cells and assayed for their activity using histone H1 as substrate. (“[…]”: preimmune serum).
(B) Cdk2 activity after NaB application. Upper panel: Cdk 2 complexes were immunoprecipitated and assayed for their activity using histone H1 as substrate. Lower panels: Western blot analysis of the cdk 2 complexes which were precipitated, separated in a 12% SDS-PAGE gel and immunoblotted with specific antibodies used in panel A. Loading was verified by incubation with cdk 2 antibodies.
For cell fractionation, cell monolayers were washed twice with PBS and harvested by trypsinisation. Cell extract preparation and cdk2 activity assays were exactly done as described by Blomberg and Hoffmann, Mol. Cell. Biol. 19 (1999), 6183-6194. In addition, cdk2 was immunoprecipitated and analyzed by immunoblotting. Beads used for cdk2 kinase assay were washed 3 times with lysis buffer (Blomberg and Hoffmann, 1999), incubated with Laemmli sample buffer and boiled for 5 min. Supernatant was analyzed by SDS-PAGE gels. Immunoblotting was carried out with the following antibodies: p21^CIP1 (C24420) and p27^KIP1 (K25020; Transduction Laboratories) or HPV18-E7 (N-19; Santa Cruz, Inc.). Cdk2 specific antibodies or preimmune serum were kindly provided by I. Hoffmann (DKFZ, Heidelberg).
Autoradiography. Cdk2 complexes were immunoprecipitated from HeLa cells and assayed for their activity using histone H1 as substrate. (“PI”: preimmune serum).
Autoradiography. Cdk2 complexes were immunoprecipitated from HeLa cells and assayed for their activity as in (c). […] (Contr.): untreated cells harvested after 3, 6, 9, 12, and 16 hours.

p27^KIP1 = experiment: Western blot of p27^KIP1 in HeLa cells; format: cell-based, human; conditions: 16 hours
Procedure: (§1) (A) Westem blot analysis. 50 μg of cellular protein were loaded on SDS-PAGE minigels. After electrotransfer, the filters were incubated with p21^CIP1, p27^KIP1, p16^INK4 and p45^SKP2. Equal protein loading was confirmed by a monoclonal actin antibody.
(§2) Cellular extracts were separated in 8-12% SDS PAGE gels and electrotransferred as described elsewhere (Finzer et al., Oncogene 19 (2000), 3235-3244; Soto et al., Oncogene 18 (1999), 3187-3198). The following antibodies were used: cyclin E (HE 12), cyclin D 1 (HD 11), cdk2 (M2), (D-12; Santa Cruz Biotechnology, Inc., Santa Cruz, USA), cdk4 (C-22), cdk6 (C-21), p27^KIP1 (C-19), (K25020), p45^SKP2 (N-19), HPV18-E7 (N-19) and E2F-1 (KH95) (Santa Cruz Biotechnology, Inc. Santa Cruz, USA), p21^CIP1 (C24420; Transduction Laboratories, Lexington, USA), pRB (NCL-RB; Novocastra, UK), p16^INK4 (15126E, Pharmingen, San Diego, USA) and HPV 16 E7 (ZYMED Lab. Inc., San Francisco, USA). Cyclin A was kindly provided by M. Pagano (Pagano et al., EMBO J. 11 (1992), 961-971). Equal protein transfer and loading was routinely checked by incubating the filters with a monoclonal actin antibody (ICN Biomedicals, Ohio, USA).
(§3) Western blot analysis. 50 μg of cellular protein was loaded on SDS-PAGE minigels. After electrotransfer, the filters were incubated with p21^CIP1, p27^KIP1, p16^INK4 and p45^SKP2. […]

p45^SKP2 = experiment: Western blot of p45^SKP2 in HeLa cells; format: cell-based, human; conditions: 16 hours
Procedure: as §1, §2, §3

cyclin E = experiment: Western blot of cyclin E in HeLa cells; format: cell-based, human; conditions: 16 hours
Procedure: 50 μg of protein were separated on 12% SDS-PAGE minigels. After electrotransfer, the filters were incubated with antibodies against cyclin D1, cyclin E, cyclin A or cdk2, cdk4 or cdk6 specific antibodies. Equal protein loading was confirmed by reincubating the filters with a monoclonal actin antibody.
as §2
50 μg of protein was separated on 12% SDS-PAGE minigels. […]

E2F-1 = experiment: Western blot of E2F-1 in HeLa cells; format: cell-based, human; conditions: 16 hours
Procedure: (B and C) Western blot analysis. 50 μg of protein were separated in 8% (for pRb) and 12% SDS-PAGE gels. After electrotransfer, the filters were incubated with pRb, E2F-1 (B) and (C) p53 specific antibodies. Equal protein loading was confirmed with a monoclonal actin antibody.
as §2
Western blot analysis: 50 μg of protein was separated in 8% (for pRb) and 12% SDS-PAGE gels. After electrotransfer, the filters were incubated with pRb, E2F-1 (f) and (g) p53 specific antibodies. […]

CCCC(=O)[O-].[Na+] [sodium butyrate]
HPV16 transcription, time course ([1]; "1321" cells, NaB, induced three hours after treatment): strong upregulation | HPV mRNA after longer incubation ([1]; NaB, 16 hours): declined to basal levels | cdk2 kinase activity, time course (cdk2): still active after 9 hours, but abruptly declined 3 hours later | cdk2 kinase activity, time course (cdk2; listed as NaB): remained active up to 9 hours, but immediately declined between 12-16 hours | cdk2 kinase activity (histone H1) (cdk2; 6 mM sodium butyrate, vs untreated control): completely abolished | p27^KIP1 protein level (p27^KIP1; 6 mM sodium butyrate): significantly induced | p45^SKP2 protein level (p45^SKP2; 6 mM sodium butyrate): strongly suppressed | cyclin E protein level (cyclin E; 6 mM sodium butyrate): strongly increased | E2F-1 level (E2F-1; 6 mM sodium butyrate): no consequences on gene expression and translation

CC(/C=C/C(=O)NO)=C\[C@@H](C)C(=O)c1ccc(N(C)C)cc1 [trichostatin A]
divergent HPV16 regulation in "1637" and "1321" cells ([1]; TSA (data not shown)): Analogous results | cdk2 kinase activity (histone H1) (cdk2; 330 nM trichostatin A): Suppresses | p27^KIP1 protein level (p27^KIP1; 330 nM trichostatin A): Upregulates | p45^SKP2 protein level (p45^SKP2; 330 nM trichostatin A, listed as Trichostatin A): Suppresses | cyclin E protein level (cyclin E; 330 nM trichostatin A): Upregulates | E2F-1 level (E2F-1; 330 nM trichostatin A): without Affecting
